Like-named read-outs stand apart in the source and are kept apart here.
Legend:
[1] = tested on: MV4-11 cells; assay: MV4-11 Cell Cytotoxicity Assay (CellTiter-Blue, 72 h); assay type: cell-based, human; conditions: 72 h at 37° C.
Description: In some embodiments, the potency of the STAT5 inhibitors are evaluated by an in vitro assay such as MV4-11 Cell Cytotoxicity Assay. MV4-11 cells were grown in Iscove's Modified Dulbecco's Medium (IMDM) supplemented with 10% fetal bovine serum (FBS). 10,000 cells were plated per well in 96-well flat-bottom sterile culture plates with low-evaporation lids. After 24 h, inhibitors and a vehicle control (0.5% DMSO) were added and the cells were incubated for 72 h at 37° C. in 5% CO2. Inhibitors were examined in triplicate at a maximal concentration of 50 μM, followed by 1:2 dilutions in subsequent wells (25, 12.5, 6.25, 3.125, 1.5625, 0.78125, 0.390625, 0.195313 and 0.097656 μM). After 72 h, the wells were treated with CellTiter-Blue® (20 μL/well), and the plates were incubated using standard cell culture conditions for 1 hour. Fluorescence was measured at 560/590 nm.

[2] = Reactivity Profiling with Glutathione (GSH), HPLC; assay type: in vitro ADME; conditions: 5 mM glutathione (GSH) in cell culture medium, 25 μM inhibitor, IMDM 10% FBS, 0.5% DMSO, 25° C., read-out: T1/2-GSH
Description: In some embodiments, metabolic stability of the compounds are evaluated according to their reactivity profiles with GSH.
3.5 μL of 5 mM stocking solution of the inhibitors in DMSO was added to 697.5 μL of Iscove's Modified Dulbecco's Medium (IMDM) supplemented with 10% FBS and antibiotic antimycotic solution, with 5 mM glutathione to afford a final concentration of 25 μM inhibitor with 0.5% DMSO. The solution was then immediately placed in the sample tray at 25° C. Sample was analyzed at pre-defined intervals, typically every 1.5 hours, for up to four injections, by HPLC, included at time zero, without further pre-treatment. For each inhibitor, its peak is integrated at different time points and compared to the time zero injection in order to obtain a percentage remaining. Half-life is calculated according to a first order reaction kinetic taking into account those time points for which remaining percentage of inhibitor is above 40%, using the formula: t½=Ln(2)/k, where k is the slope of the linear plot of Ln[Inhibitor] vs time, according to the formula: Ln[A]=Ln[A]0−kt, where [A] is the value resulting from the integration at each time point, [A]0 the value at time zero, and t the time. For each inhibitor, both replicates are averaged and the resulting t½ reported. Selective reactivity against GSH in particular is confirmed by incubation of the inhibitor in the same solution without the presence of GSH, and single analysis after a time longer than the latest time point analyzed for the samples with GSH.

[3] = Homo sapiens, Table 3, read-out: IC50-MV-4-11

half-life at 25 μM [2] | Compound | IC50 [1, 3] | other results
 | CNc1c(N(C)CCN(Cc2cc(C3CC3)cc(C(C)(C)C)c2)C(=O)CN(Cc2ccccc2F)S(=O)(=O)c2c(F)c(F)c(F)c(F)c2F)c(=O)c1=O [Compound 1016, N-(3-(tert-butyl)-5-cyclopropylbenzyl)-N-(2-(methyl(2-(methylamino)-3,4-dioxocyclobut-1-en-1-yl)amino)ethyl)-2-(N-(2-fluorobenzyl)-(2,3,4,5,6-pentafluorophenyl)sulfonamido)acetamide] | 0.01 to 1000 nM | 
 | CC(C)(C)c1cc(CN(C(=O)CN(Cc2ccc(Cl)cc2)S(=O)(=O)c2c(F)c(F)c(F)c(F)c2F)c2ccc(N)nc2)cc(C2CC2)c1 [Compound 1007, N-(6-aminopyridin-3-yl)-N-(3-(tert-butyl)-5-cyclopropylbenzyl)-2-(N-(4-chlorobenzyl)-(2,3,4,5,6-pentafluorophenyl)sulfonamido)acetamide] | 1000 to 3160 nM | 
9.23 to 1670 h | CC(C)(C)c1cc(CN(C(=O)CN(Cc2ccc(Cl)cc2)S(=O)(=O)c2c(F)c(F)c(F)c(F)c2F)c2cnc(N)nc2)cc(C2CC2)c1 [Compound 1006, N-(2-aminopyrimidin-5-yl)-N-(3-(tert-butyl)-5-cyclopropylbenzyl)-2-(N-(4-chlorobenzyl)-(2,3,4,5,6-pentafluorophenyl)sulfonamido)acetamide] | 1000 to 3160 nM | 
9.23 to 1670 h | CN(C)c1c(N(C)CCN(Cc2cc(C3CC3)cc(C(C)(C)C)c2)C(=O)CN(Cc2ccccc2F)S(=O)(=O)c2c(F)c(F)c(F)c(F)c2F)c(=O)c1=O [Compound 1014, N-(3-(tert-butyl)-5-cyclopropylbenzyl)-N-(2-((2-(dimethylamino)-3,4-dioxocyclobut-1-en-1-yl) (methyl)amino)ethyl)-2-(N-(2-fluorobenzyl)-(2,3,4,5,6-pentafluorophenyl)sulfonamido)acetamide] | 0.01 to 1000 nM | 
 | CC(C)(C)c1cc(CN(C(=O)CN(Cc2cnccc2C(F)(F)F)S(=O)(=O)c2c(F)c(F)c(F)c(F)c2F)c2cnc(N)nc2)cc(C2CC2)c1 [Compound 1017, N-(2-aminopyrimidin-5-yl)-N-(3-(tert-butyl)-5-cyclopropylbenzyl)-2-(N-((4-(trifluoromethyl)pyridin-3-yl)methyl)-(2,3,4,5,6-pentafluorophenyl)sulfonamido)acetamide] | 0.01 to 1000 nM | 
 | CC(C)(C)c1cc(CN(C(=O)CN(Cc2ccc(Cl)cc2)S(=O)(=O)c2c(F)c(F)c(F)c(F)c2F)c2cccnc2)cc(C2CC2)c1 [Compound 1001, N-(3-(tert-butyl)-5-cyclopropylbenzyl)-2-(N-(4-chlorobenzyl)-(2,3,4,5,6-pentafluorophenyl)sulfonamido)-N-(pyridin-3-yl) acetamide] | 1000 to 3160 nM | 
 | CC(C)(C)c1cc(CN(C(=O)CN(Cc2ccccc2F)S(=O)(=O)c2c(F)c(F)c(F)c(F)c2F)c2ccc(N)nc2)cc(C2CC2)c1 [Compound 1008, N-(6-aminopyridin-3-yl)-N-(3-(tert-butyl)-5-cyclopropylbenzyl)-2-(N-(2-fluorobenzyl)-(2,3,4,5,6-pentafluorophenyl)sulfonamido)acetamide] | 1000 to 3160 nM | 
4.12 to 9.23 h | CN(C)c1c(NCCN(Cc2cc(C3CC3)cc(C(C)(C)C)c2)C(=O)CN(Cc2cnccc2C(F)(F)F)S(=O)(=O)c2c(F)c(F)c(F)c(F)c2F)c(=O)c1=O [Compound 1012, N-(3-(tert-butyl)-5-cyclopropylbenzyl)-N-(2-((2-(dimethylamino)-3,4-dioxocyclobut-1-en-1-yl)amino)ethyl)-2-(N-((4-(trifluoromethyl)pyridin-3-yl)methyl)-(2,3,4,5,6-pentafluorophenyl)sulfonamido)acetamide] | 0.01 to 1000 nM | 
 | COc1ccc(N(Cc2cc(C3CC3)cc(C(C)(C)C)c2)C(=O)CN(Cc2ccc(Cl)cc2)S(=O)(=O)c2c(F)c(F)c(F)c(F)c2F)cn1 [Compound 1005, N-(3-(tert-butyl)-5-cyclopropylbenzyl)-2-(N-(4-chlorobenzyl)-(2,3,4,5,6-pentafluorophenyl)sulfonamido)-N-(6-methoxypyridin-3-yl) acetamide] | 3160 to 100000 nM | 
4.12 to 9.23 h | CC(C)(C)c1cc(CN(C(=O)CN(Cc2ccccc2F)S(=O)(=O)c2c(F)c(F)c(F)c(F)c2F)c2cnc(N)nc2)cc(C2CC2)c1 [Compound 1009, N-(2-aminopyrimidin-5-yl)-N-(3-(tert-butyl)-5-cyclopropylbenzyl)-2-(N-(2-fluorobenzyl)-(2,3,4,5,6-pentafluorophenyl)sulfonamido)acetamide] | 0.01 to 1000 nM | 
9.23 to 1670 h | CN(C)c1c(NCCN(Cc2cc(C3CC3)cc(C(C)(C)C)c2)C(=O)CN(Cc2ccccc2F)S(=O)(=O)c2c(F)c(F)c(F)c(F)c2F)c(=O)c1=O [Compound 1010, N-(3-(tert-butyl)-5-cyclopropylbenzyl)-N-(2-((2-(dimethylamino)-3,4-dioxocyclobut-1-en-1-yl)amino)ethyl)-2-(N-(2-fluorobenzyl)-(2,3,4,5,6-pentafluorophenyl)sulfonamido)acetamide] | 0.01 to 1000 nM | 
 | N-(3-(tert-butyl)-5- cyclopropylbenzyl)-2-(N-(4- chlorobenzyl)-(2,3,4,5,6- pentafluorophenyl) sulfonamido)-N-(2- methoxypyrimidin-5-yl) acetamide [Compound 1003] |  | IC50 ([1]; Table 3, read-out: IC50-MV-4-11): 1000 to 3160 nM
9.23 to 1670 h | CC(C)(C)c1cc(CN(C(=O)CN(Cc2ccc(Cl)cc2)S(=O)(=O)c2c(F)c(F)c(F)c(F)c2F)c2ccc(O)nc2)cc(C2CC2)c1 [Compound 1002, N-(3-(tert-butyl)-5-cyclopropylbenzyl)-2-(N-(4-chlorobenzyl)-(2,3,4,5,6-pentafluorophenyl)sulfonamido)-N-(6-hydroxypyridin-3-yl) acetamide] | 1000 to 3160 nM | 
 | CN(C)c1c(NCCN(Cc2cc(C3CC3)cc(C(C)(C)C)c2)C(=O)CN(Cc2c(F)cc(F)cc2F)S(=O)(=O)c2c(F)c(F)c(F)c(F)c2F)c(=O)c1=O [Compound 1011, N-(3-(tert-butyl)-5-cyclopropylbenzyl)-N-(2-((2-(dimethylamino)-3,4-dioxocyclobut-1-en-1-yl)amino)ethyl)-2-(N-(2,4,6-trifluorobenzyl)-(2,3,4,5,6-pentafluorophenyl)sulfonamido)acetamide] | 0.01 to 1000 nM | 
9.23 to 1670 h | CNc1c(NCCN(Cc2cc(C3CC3)cc(C(C)(C)C)c2)C(=O)CN(Cc2ccccc2F)S(=O)(=O)c2c(F)c(F)c(F)c(F)c2F)c(=O)c1=O [Compound 1013, N-(3-(tert-butyl)-5-cyclopropylbenzyl)-N-(2-((2-(methylamino)-3,4-dioxocyclobut-1-en-1-yl)amino)ethyl)-2-(N-(2-fluorobenzyl)-(2,3,4,5,6-pentafluorophenyl)sulfonamido)acetamide] | 0.01 to 1000 nM | 
 | CC(C)(C)c1cc(CN(C(=O)CN(Cc2ccc(Cl)cc2)S(=O)(=O)c2c(F)c(F)c(F)c(F)c2F)c2ccc(C(=O)O)nc2)cc(C2CC2)c1 [Compound 1004, 5-(N-(3-(tert-butyl)-5-cyclopropylbenzyl)-2-(N-(4-chlorobenzyl)-(2,3,4,5,6-pentafluorophenyl)sulfonamido)acetamido) picolinic acid] | 3160 to 100000 nM | 
 | CC(C)(C)c1cc(CN(C(=O)CN(Cc2ccc(Cl)cc2)S(=O)(=O)c2c(F)c(F)c(F)c(F)c2F)C2=CNC(=O)NC2)cc(C2CC2)c1 [Compound 1018, N-(3-(tert-butyl)-5-cyclopropylbenzyl)-2-(N-(4-chlorobenzyl)-(2,3,4,5,6-pentafluorophenyl)sulfonamido)-N-(2-oxo-1,2,3,4-tetrahydropyrimidin-5-yl)acetamide] |  | IC50 ([1]; Homo sapiens, Table 4, read-out: IC50-MV-4-11): 1000 to 3160 nM
 | CN(C)c1c(NCCCN(Cc2cc(C3CC3)cc(C(C)(C)C)c2)C(=O)CN(Cc2ccccc2F)S(=O)(=O)c2c(F)c(F)c(F)c(F)c2F)c(=O)c1=O [Compound 1015, N-(3-(tert-butyl)-5-cyclopropylbenzyl)-N-(3-((2-(dimethylamino)-3,4-dioxocyclobut-1-en-1-yl)amino)propyl)-2-(N-(2-fluorobenzyl)-(2,3,4,5,6-pentafluorophenyl)sulfonamido)acetamide] | 0.01 to 1000 nM | 

— patent US20230150946A1, “HETEROCYCLE CONTAINING STAT INHIBITORS AND COMPOSITIONS” (JANPIX LIMITED, priority 2020, published 2023)
